Experimental findings from patent US20260166128A1, “HUMAN AMYLIN ANALOG, AND DERIVATIVE THEREOF AND USE THEREOF” (priority 2022, published 2026) are described below.

For orientation: EC50 means the midpoint of the concentration-response curve.

Numbered stars: 1 amine (or outer) side, 2 acyl side, 3 side chain; on linkers, the order of the positions; unused ones are H or OH. Bridge positions count the residues as written; N and C are the ends. Square brackets hold non-standard residues; d marks the D form. Side chains are listed from the residue outwards. Peptide text beside a SMILES is read from it. * marks the point of attachment. C20 diacid = O=C(O)CCCCCCCCCCCCCCCCCCC(=O)*; γGlu = O=C(O)[C@H](CCC(=O)[*:2])N[*:1]; Hyp = O=C(O)[C@@H]1C[C@@H](O)CN1; Dap = NC[C@H](N)C(=O)O; AEEA = NCCOCCOCC(=O)O

The target in this experiment is T1, human amylin receptor (Homo sapiens, UniProt O60896+P30988).
T1 construct: host or cells: CHO-K1/Ga15/AMY3 cells, further stably transfected with a CRE-luciferase plasmid
T1 sequence (P30988 25-474): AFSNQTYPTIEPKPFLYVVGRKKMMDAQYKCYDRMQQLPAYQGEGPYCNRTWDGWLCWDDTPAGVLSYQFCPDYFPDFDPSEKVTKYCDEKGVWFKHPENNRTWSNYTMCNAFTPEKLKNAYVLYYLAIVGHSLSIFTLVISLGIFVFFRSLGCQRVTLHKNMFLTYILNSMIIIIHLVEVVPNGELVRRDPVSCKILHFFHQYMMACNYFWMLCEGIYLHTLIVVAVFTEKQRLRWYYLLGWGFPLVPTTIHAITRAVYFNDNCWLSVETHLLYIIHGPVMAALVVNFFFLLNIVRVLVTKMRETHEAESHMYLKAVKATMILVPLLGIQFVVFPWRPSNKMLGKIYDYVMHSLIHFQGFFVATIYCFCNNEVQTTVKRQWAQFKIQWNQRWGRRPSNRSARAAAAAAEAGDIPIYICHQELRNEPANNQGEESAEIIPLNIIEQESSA
T1 sequence (O60896 24-148 partner): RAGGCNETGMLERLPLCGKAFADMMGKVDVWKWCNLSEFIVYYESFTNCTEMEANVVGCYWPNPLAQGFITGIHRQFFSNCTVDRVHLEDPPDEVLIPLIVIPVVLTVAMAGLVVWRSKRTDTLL
Briefly: Luciferase assay of amylin derivatives in amylin receptor/CRE-luc CHO cell line. In kind it is cell-based. The note with it: CHO-K1/Ga15/AMY3 CRE-luc cells, 24 hours incubation, F12 medium containing 10% FBS; read-out: EC50.
Procedure: The experiment was intended to detect the activity or efficacy of the amylin derivatives on a human amylin receptor in vitro by luciferase assay.
50 μL of growth medium (F12 medium containing 10% FBS) was added into each well of a white 96-well plate, and the stably transfected amylin/CRE-lue CHO cells were inoculated into the white 96-well plate at a density of about 20,000 cells/well for activity determination.
In the case of `CC[C@H](C)[C@H](NC(=O)[C@@H]1CCCN1C(=O)[C@H](CCCCN)NC(=O)[C@H](CC(C)C)NC(=O)[C@H](CC(N)=O)NC(=O)[C@H](CC(N)=O)NC(=O)[C@H](CO)NC(=O)[C@H](CO)NC(=O)[C@H](Cc1c[nH]cn1)NC(=O)[C@H](CCCNC(=N)N)NC(=O)[C@H](CC(C)C)NC(=O)[C@H](Cc1ccccc1)NC(=O)[C@H](CC(=O)O)NC(=O)[C@H](C)NC(=O)[C@H](CC(C)C)NC(=O)[C@H](CCCNC(=N)N)NC(=O)[C@H](CCC(N)=O)NC(=O)[C@@H](NC(=O)[C@H](C)NC(=O)[C@@H]1CSSC[C@H](NC(=O)[C@H](CCCCN)NC(=O)COCCOCCNC(=O)COCCOCCNC(=O)[C@H](CC(=O)O)NC(=O)CCCCCCCCCCCCCCCCCCC(=O)O)C(=O)N[C@@H](CC(N)=O)C(=O)N[C@@H]([C@@H](C)O)C(=O)N[C@@H](C)C(=O)N[C@@H]([C@@H](C)O)C(=O)N1)[C@@H](C)O)C(=O)N[C@@H](CC(C)C)C(=O)N1CCC[C@H]1C(=O)N1CCC[C@H]1C(=O)N[C@H](C(=O)N[C@@H](CC(N)=O)C(=O)N[C@H](C(=O)NCC(=O)N[C@@H](CO)C(=O)N[C@@H](CC(N)=O)C(=O)N[C@H](C(=O)N1CCC[C@H]1C(N)=O)[C@@H](C)O)C(C)C)[C@@H](C)O` [PD193] ({C20 diacid}-D[AEEA][AEEA]KCNTATCATQRLADFLRHSSNNLKPILPPTNVGSNTP-NH2; disulfide 5-10 (inferred)), the EC50 stood at 74 pM.

As to `CC[C@H](C)[C@H](NC(=O)[C@H](CCCCNC(=O)CC[C@H](NC(=O)CCCCCCCCCCCCCCCCCCC(=O)O)C(=O)O)NC(=O)CNC(=O)[C@H](CC(C)C)NC(=O)[C@H](CC(N)=O)NC(=O)[C@H](CC(N)=O)NC(=O)[C@H](CO)NC(=O)[C@H](CO)NC(=O)[C@H](Cc1c[nH]cn1)NC(=O)[C@H](CCCNC(=N)N)NC(=O)[C@H](CC(C)C)NC(=O)[C@H](Cc1ccccc1)NC(=O)[C@H](CC(=O)O)NC(=O)[C@H](C)NC(=O)[C@H](CC(C)C)NC(=O)[C@H](CCCNC(=N)N)NC(=O)[C@H](CCC(N)=O)NC(=O)[C@@H](NC(=O)[C@H](C)NC(=O)[C@@H]1CSSC[C@H](NC(=O)[C@@H](N)CCCNC(=N)N)C(=O)N[C@@H](CC(N)=O)C(=O)N[C@@H]([C@@H](C)O)C(=O)N[C@@H](C)C(=O)N[C@@H]([C@@H](C)O)C(=O)N1)[C@@H](C)O)C(=O)N[C@@H](CC(C)C)C(=O)N1CCC[C@H]1C(=O)N1CCC[C@H]1C(=O)N[C@H](C(=O)N[C@@H](CC(N)=O)C(=O)N[C@H](C(=O)NCC(=O)N[C@@H](CO)C(=O)N[C@@H](CC(N)=O)C(=O)N[C@H](C(=O)N1C[C@H](O)C[C@H]1C(N)=O)[C@@H](C)O)C(C)C)[C@@H](C)O` [PD102] (H-RCNTATCATQRLADFLRHSSNNLGK([γGlu-C20 diacid])ILPPTNVGSNT[Hyp]-NH2; disulfide 2-7), the EC50 came to 33 pM.

In the case of `CC[C@H](C)[C@H](NC(=O)[C@@H]1CCCN1C(=O)CNC(=O)[C@H](Cc1ccccc1)NC(=O)[C@H](CC(N)=O)NC(=O)[C@H](CC(N)=O)NC(=O)[C@H](CO)NC(=O)[C@H](CO)NC(=O)[C@H](Cc1c[nH]cn1)NC(=O)[C@H](CCCNC(=N)N)NC(=O)[C@H](CC(C)C)NC(=O)[C@H](Cc1ccccc1)NC(=O)[C@H](CC(=O)O)NC(=O)[C@H](C)NC(=O)[C@H](CC(C)C)NC(=O)[C@H](CCCNC(=N)N)NC(=O)[C@H](CCC(N)=O)NC(=O)[C@@H](NC(=O)[C@H](C)NC(=O)[C@@H]1CSSC[C@H](NC(=O)[C@@H](N)CCCCNC(=O)CC[C@H](NC(=O)CCCCCCCCCCCCCCCCCCC(=O)O)C(=O)O)C(=O)N[C@@H](CC(N)=O)C(=O)N[C@@H]([C@@H](C)O)C(=O)N[C@@H](C)C(=O)N[C@@H]([C@@H](C)O)C(=O)N1)[C@@H](C)O)C(=O)N[C@@H](CC(C)C)C(=O)N1CCC[C@H]1C(=O)N1CCC[C@H]1C(=O)N[C@H](C(=O)N[C@@H](CC(N)=O)C(=O)N[C@H](C(=O)NCC(=O)N[C@@H](CO)C(=O)N[C@@H](CC(N)=O)C(=O)N[C@H](C(=O)N1C[C@H](O)C[C@H]1C(N)=O)[C@@H](C)O)C(C)C)[C@@H](C)O` [PD068] (H-K([γGlu-C20 diacid])CNTATCATQRLADFLRHSSNNFGPILPPTNVGSNT[Hyp]-NH2; disulfide 2-7), the EC50 was determined as 32 pM.

Take `CC[C@H](C)[C@H](NC(=O)[C@@H]1CCCN1C(=O)[C@H](CCCCNC(=O)CC[C@H](NC(=O)CCCCCCCCCCCCCCCCCCC(=O)O)C(=O)O)NC(=O)[C@H](CC(C)C)NC(=O)[C@H](CC(N)=O)NC(=O)[C@H](CC(N)=O)NC(=O)[C@H](CO)NC(=O)[C@H](CO)NC(=O)[C@H](Cc1c[nH]cn1)NC(=O)[C@H](CCCNC(=N)N)NC(=O)[C@H](CC(C)C)NC(=O)[C@H](Cc1ccccc1)NC(=O)[C@H](CC(=O)O)NC(=O)[C@H](C)NC(=O)[C@H](CC(C)C)NC(=O)[C@H](CCCNC(=N)N)NC(=O)[C@H](CCC(N)=O)NC(=O)[C@@H](NC(=O)[C@H](C)NC(=O)[C@@H]1CSSC[C@H](NC(=O)[C@@H](N)CN)C(=O)N[C@@H](CC(N)=O)C(=O)N[C@@H]([C@@H](C)O)C(=O)N[C@@H](C)C(=O)N[C@@H]([C@@H](C)O)C(=O)N1)[C@@H](C)O)C(=O)N[C@@H](CC(C)C)C(=O)N1CCC[C@H]1C(=O)N1CCC[C@H]1C(=O)N[C@H](C(=O)N[C@@H](CC(N)=O)C(=O)N[C@H](C(=O)NCC(=O)N[C@@H](CO)C(=O)N[C@@H](CC(N)=O)C(=O)N[C@H](C(=O)N1C[C@H](O)C[C@H]1C(N)=O)[C@@H](C)O)C(C)C)[C@@H](C)O` [PD073] (H-[Dap]CNTATCATQRLADFLRHSSNNLK([γGlu-C20 diacid])PILPPTNVGSNT[Hyp]-NH2; disulfide 2-7): the EC50 was found to be 63 pM.

On to `CC[C@H](C)[C@H](NC(=O)[C@@H]1CCCN1C(=O)CNC(=O)[C@H](CC(C)C)NC(=O)[C@H](CC(N)=O)NC(=O)[C@H](CC(N)=O)NC(=O)[C@H](CO)NC(=O)[C@H](CCCCNC(=O)COCCOCCNC(=O)COCCOCCNC(=O)CC[C@H](NC(=O)CCCCCCCCCCCCCCCCCCC(=O)O)C(=O)O)NC(=O)[C@H](Cc1c[nH]cn1)NC(=O)[C@H](CCCNC(=N)N)NC(=O)[C@H](CC(C)C)NC(=O)[C@H](Cc1ccccc1)NC(=O)[C@H](CC(=O)O)NC(=O)[C@H](C)NC(=O)[C@H](CC(C)C)NC(=O)[C@H](CCCNC(=N)N)NC(=O)[C@H](CCC(N)=O)NC(=O)[C@@H](NC(=O)[C@H](C)NC(=O)[C@@H]1CSSC[C@H](NC(=O)[C@@H](N)CCCNC(=N)N)C(=O)N[C@@H](CC(N)=O)C(=O)N[C@@H]([C@@H](C)O)C(=O)N[C@@H](C)C(=O)N[C@@H]([C@@H](C)O)C(=O)N1)[C@@H](C)O)C(=O)N[C@@H](CC(C)C)C(=O)N1CCC[C@H]1C(=O)N1CCC[C@H]1C(=O)N[C@H](C(=O)N[C@@H](CC(N)=O)C(=O)N[C@H](C(=O)NCC(=O)N[C@@H](CO)C(=O)N[C@@H](CC(N)=O)C(=O)N[C@H](C(=O)N1C[C@H](O)C[C@H]1C(N)=O)[C@@H](C)O)C(C)C)[C@@H](C)O` [PD099] (H-RCNTATCATQRLADFLRHK([AEEA-AEEA-γGlu-C20 diacid])SNNLGPILPPTNVGSNT[Hyp]-NH2; disulfide 2-7), for which the EC50 came to 33 pM.

`CC[C@H](C)[C@H](NC(=O)[C@@H]1CCCN1C(=O)[C@@H]1CCCN1C(=O)[C@H](CC(C)C)NC(=O)[C@H](CC(N)=O)NC(=O)[C@H](CC(N)=O)NC(=O)[C@H](CO)NC(=O)[C@H](CO)NC(=O)[C@H](Cc1c[nH]cn1)NC(=O)[C@H](CCCNC(=N)N)NC(=O)[C@H](CC(C)C)NC(=O)[C@H](Cc1ccccc1)NC(=O)[C@H](CC(=O)O)NC(=O)[C@H](C)NC(=O)[C@H](CC(C)C)NC(=O)[C@H](CCCNC(=N)N)NC(=O)[C@H](CCC(N)=O)NC(=O)[C@@H](NC(=O)[C@H](C)NC(=O)[C@@H]1CSSC[C@H](NC(=O)[C@H](CCCCN)NC(=O)CC[C@H](NC(=O)CCCCCCCCCCCCCCCCCCC(=O)O)C(=O)O)C(=O)N[C@@H](CC(N)=O)C(=O)N[C@@H]([C@@H](C)O)C(=O)N[C@@H](C)C(=O)N[C@@H]([C@@H](C)O)C(=O)N1)[C@@H](C)O)C(=O)N[C@@H](CC(C)C)C(=O)N1CCC[C@H]1C(=O)N1CCC[C@H]1C(=O)N[C@H](C(=O)N[C@@H](CC(N)=O)C(=O)N[C@H](C(=O)NCC(=O)N[C@@H](CO)C(=O)N[C@@H](CC(N)=O)C(=O)N[C@H](C(=O)N1CCC[C@H]1C(N)=O)[C@@H](C)O)C(C)C)[C@@H](C)O` [PD163] ({C20 diacid-γGlu}-KCNTATCATQRLADFLRHSSNNLPPILPPTNVGSNTP-NH2; disulfide 2-7 (inferred)): the EC50 worked out at 84 pM.
